Legend:
male mice C57 BL/6 [1] = assay: Effect of phytoecdysones on mice subjected to a normal control diet; assay type: in vivo, mice (Mus musculus line C57BI6)
Protocol: At the same time, another test is carried out for studying the effect of these same phytoecdysones on mice which have not been subjected to a fat diet, which is considered as a normal control diet.
(§1) The 24 mice of each series have been subjected to a diet, such as detailed in the table 2, for three weeks and have been treated at the same time with the pure molecule, or a quinoa extract enriched up to 1.6% (2.24% the last treatment week for the control series) or 7% of 20-hydroxyecdysone (20E). The concentration of 20-hydroxyecdysone is adjusted to 40 mg per kg of food.
(§2) While taking account of the amount of food ingested on average by the mice, the administered dose of 20E corresponds in the three treatments to 5 mg of 20E per kg of the body weight and per day. The food is supplied in excess, three times a week, for both diets and the three treatments. On average, 40 g of food are supplied for each cage and per day, i.e. 6.5 g of food for each mouse and per day.
(§3) The table 2 below indicates in more detail the composition of the food diet to which the mice are subjected.
(§4) At the time of the sacrifice, the weight of the mice (Bwt), as well as the weight of the liver, the epididymis adipose tissue (EAT) and the subcutaneous adipose tissue (SCAT) are measured.
(§5) Cells of the epididymis adipose tissue are taken for carrying out a count and a morphological analysis.

male mice C57 BL/6 [2] = assay: Effect of phytoecdysones on mice subjected to a fat (lard, inductor) diet for three weeks; assay type: in vivo, mice (Mus musculus line C57BI6)
Protocol: A test is carried out for studying the effect of phytoecdysones on mice subjected to a fat diet for three weeks
The fat diet or inductor diet consists in supplying large amounts of fat matter in the form of lard. The mice selected for this study are male mice C57 BL/6, 6-weeks old at the beginning of this inductor diet. Such mice are a preferred study model for analyzing the impact of the quinoa extract enriched with phytoecdysones according to the invention on the physiological parameters of the metabolic syndrome.
The inductor diet is a diet enriched with lard.
as §1, §2, §3, §4, §5

With `CC(C)(O)CC[C@@H](O)[C@](C)(O)[C@H]1CC[C@@]2(O)C3=CC(=O)[C@@H]4C[C@@H](O)[C@@H](O)C[C@]4(C)[C@H]3CC[C@]12C` [pure molecule, 20-hydroxyecdysone] the “effect in non obese animals with a normal diet (conclusion)” value (male mice C57 BL/6 [1]) was “no effect”, the “adiposity, gonad (epididymis) adipose tissue (% EAT)” value (male mice C57 BL/6 [1]; three weeks, 5 mg 20E/kg/day, versus untreated mice, FIG. 2) was “does not modify the adiposity” and the mode of the distribution of adipocyte diameters (male mice C57 BL/6 [2]; FIG. 5, lard control about 70) was 60 µm. The maximum adipocyte diameter of the distribution (male mice C57 BL/6 [2]; FIG. 5, lard control up to 110) was 90 µm, the “effect on adipocyte diameter” value (male mice C57 BL/6 [2]; epididymis adipose tissue cells, FIG. 4) was “reduces the adipocyte sizes in a significant manner” and the “obesity / adiposity induced by hyperlipidical and hypercalorific diet (conclusion)” value (male mice C57 BL/6 [2]; gonad and subcutaneous tissue) was “avoid a development of the an obesity”. For the same molecule, the “decrease of the adiposity, gonad (epididymis) adipose tissue (% EAT)” value (male mice C57 BL/6 [2]; three weeks, 5 mg 20E/kg/day, versus untreated lard-diet mice, FIG. 2) was 50%.

From patent US8236359B2, “Use of phytoecdysones in the preparation of a composition for acting on the metabolic syndrome” (Institut Biophytis SAS, priority 2007, dated 2012)
